In brackets after ≈: the same amount, converted by molar mass.
How the values were obtained:
male beagle dogs = assay: Cardiovascular safety in telemetered dogs, intravenous infusion; type: in vivo, dog
From the text: Four male beagle dogs, obtained from Marshall Farms USA, Inc. (North Rose, N.Y.), were surgically instrumented with telemetry transducers (Data Sciences International, type RL11M2-D70-PCT) to assess arterial blood pressure (ABP) and lead II electrocardiogram (ECG) parameters.
The dosing route was an intravenous infusion jugular vein access). The infusion was accomplished using a CADD Prizm® ambulatory infusion pump attached to a jacket worn by the dog. The dose duration for the intravenous infusion was 30 min for all doses administered, except the last dose (30 mg/kg) where the infusion period was extended to 45 min to accommodate the larger dose volume required for this dose. The vehicle dose and diluent for the test article was 0.05-M sodium citrate in sterile water for injection.
There was one treatment group of four non-naïve dogs and the study was comprised of both pharmacokinetic and telemetry phases, as summarized in the dose administration table for compound (III) (Table 16) below. At least one week was given between dosings to allow clearance of the drug.
For the telemetry phase of the study, collection of hemodynamic and lead II ECG data commenced approximately 30 min prior to dosing and ended approximately 6 h post-dose. Systolic blood pressure (SBP), diastolic blood pressure (DBP), HR, and lead II ECG variables (PR interval, QRS duration, RR interval, and QT interval) were acquired continuously from each animal during each dose day recording session. The QT interval was corrected for variations in HR using the Fridericia's QTc interval (QTcF).
Data acquired following treatment with vehicle or compound (III) were extracted at −10, −5, 0, 10, 20, 30, 35, 45, 60, 90, 150, 270, and 390 min relative to the start dose time. For all blood pressure and ECG parameters, data following treatment with compound (III) were compared to the time-matched vehicle dose data. Statistical comparisons were made using a one-way ANOVA for repeated measures, followed by the Dunnett's post-hoc test when statistical significance was detected with the ANOVA. Changes were considered statistically significant when p<0.05.
A complete visual scan of the ECG waveforms from the vehicle, 11 mg/kg dose, and 15 mg/kg dose of compound (III) was conducted. All waveforms were examined for gross changes in waveform morphology and arrhythmogenesis.

P. granulosum = assay: MIC, NCCLS Reference Agar Dilution Method for anaerobic bacteria; type: cell-based, Propionibacterium granulosum
Method: Minimum inhibitory concentrations (“MICs”) were determined by the NCCLS Reference Agar Dilution Method (M11-A5, Vol. 21, No. 2) for anaerobic bacteria. A panel of 84 antibiotic-susceptible and resistant strains of Propionibacteria from distinct geographic locations were selected. Following revival from frozen stocks, each strain was purity plated onto Wilkins Chalgren Agar, pH 7.2 (Oxoid, UK), and the appropriate antibiotic resistance/susceptibility phenotype was confirmed by antibiotic disc testing. Each strain was subjected to an agar dilution MIC assay. […] The inocula for each batch of strains were prepared from 7-day old Wilkins Chalgren Agar plate cultures by resuspension of colonies in Wilkins Chalgren Anaerobe broth, pH 7.2 (Oxoid, UK) to an optical density (OD600) of 0.2±0.02. The inoculum (1.0-2.0 μL) for each strain was applied to a Wilkins Chalgren Agar MIC plate in a grid pattern using a Multipoint Inoculator (Denley, UK). All agar plates were incubated at 37° C. for 3 days under anaerobic conditions in AnaeroPack 7 liter rectangular jars (Mitsubishi Gas Chemical Company, Inc., Japan).

[1] = Pharmacokinetics in the mouse, plasma and lung tissue; type: in vivo; conditions: oral gavage 10 mg/kg
Method: The pharmacokinetics of compounds of formula (VIII) and compounds of formula (II) and (III) were measured in the mouse. Compounds were administered either intravenously (i.v.) at 1 mg/kg, or per oral gavage (p.o.) at 10 mg/kg. Plasma samples were taken and analyzed by LC/MS-MS. For lung tissue pharmacokinetics, lungs were removed and homogenized, followed by analyzis by LC/MS-MS.

[2] = Skin penetration of topical formulations, Franz static diffusion cells; type: in vitro ADME, human; conditions: first experiment, dibutyl sebacate
Method: The penetration of compound (III) formulated in various vehicles into human skin was determined. Franz static diffusion cells (15 mm diameter orifice, o-ring joint) were mounted on 9-cell manifolds and maintained at a constant temperature by use of re-circulating water baths set at 32° C. These cells have an opening with a nominal area of 1.77 cm^2 and a receptor compartment with a volume ranging between 12 to 14 ml. Each diffusion cell was assembled by placing a disk shaped section of excised human skin (obtained from elective surgery) over the orifice of the receptor (bottom) compartment. A Teflon® O-ring was placed on top of the skin before the donor cap was added (top compartment). This diffusion area was then secured in place by a pinch clamp, ensuring an adequate seal between the donor and receptor compartments. The joint between the donor and receptor compartments of each cell was wrapped with Parafilm® (American Can Company) to prevent evaporation of the receptor phase. Each cell was then filled with the receptor phase consisting of phosphate buffered saline with 0.1% sodium azide and 4% bovine serum albumin (w/w/w) at 32° C. Any air bubbles present under the tissue were removed prior to dosing. […]
Approximately 10 mg/cm^2 of each formulation was dosed onto the tissue surfaces of five cells. […] Samples were analyzed for drug content by LC/MS-MS. […]

[3] = dog, intravenous 11 and 15 mg/kg

Compound: CC1CC(N(C)C)C(O)C(O[C@@H]2[C@@H](C)C(=O)[C@](C)(F)C(=O)O[C@H](CCF)[C@@]3(C)OC(=O)N[C@@H]3[C@@H](C)C(=O)[C@H](C)C[C@@]2(C)OC/C=C/c2ccc3cccnc3c2)O1 (stereo partly shown) [Compound (III), 6-O-(1-(7-quinolyl)-3-propenyl)-11-amino-11-deoxy-3-(descladinosyl)-3-oxo-2,15-difluoroerythromycin A-11,12-cyclic carbamate]
- effect on mean HR (male beagle dogs; dog, intravenous 11 mg/kg): no effect
- effect on the QRS duration (male beagle dogs; dog, intravenous 11 mg/kg): no effect
- effect on mean HR (male beagle dogs; dog, intravenous 15 mg/kg, at the 90 and 390 time points): Significant (p<0.05) decreases in mean HR
- effect on QTcF (male beagle dogs; dog, intravenous 30 mg/kg, 35 to 90 min postdose, vs time-matched vehicle): lengthening of the QTcF interval
- effect on the PR interval (male beagle dogs; dog, intravenous 30 mg/kg, 150 to 390 min, p<0.05 at 390 min): increase in the PR interval
- effect on HR (male beagle dogs; dog, intravenous 30 mg/kg, 390 min postdose): statistically significant (p<0.05) reduction in the HR
- ABP parameters (SBP, DBP, MAP) (male beagle dogs; dog, intravenous 11, 15, and 30 mg/kg, during and up to 150 min after infusion): remained relatively unchanged
- effect on the QT interval relative to the vehicle control (male beagle dogs; dog, intravenous 11, 15, or 30 mg/kg): no significant effects
- effect on QTcF (male beagle dogs; [3]): no significant effects
- effect on the PR interval (male beagle dogs; [3]): No significant effects
- waveform morphology or ECG rhythm (male beagle dogs; dog, intravenous 11 or 15 mg/kg): no abnormalities
- effect on the QRS duration (male beagle dogs; dog, intravenous 15 and 30 mg/kg, pre-drug baseline also lower): Significant (p<0.05) decreases in QRS duration
- RR interval (male beagle dogs; dog, intravenous, study period): remained relatively unchanged
- heart rate-corrected QT interval (QTc), FIG. 6 (male beagle dogs; male beagle dogs, intravenous infusion 11 mg/kg or 15.8 mg/kg over 30 minutes): No significant increase in QTc
- effect relative to vehicle (male beagle dogs; telemetered dogs, 30 mg/kg): no significant effect
- effects on cardiac parameters, including QT interval (male beagle dogs; telemetered dogs, intravenous infusion up to 15 mg/kg): no effects
- MIC range (P. granulosum; marker RNA 2058, phenotype EryR): 8 µg/mL (≈ 9.98 µM)
- MIC range (P. granulosum; marker RNA 2059, phenotype EryR): 0.125 to 2 µg/mL
- MIC range (P. granulosum; marker ermX, phenotype EryR): 4 to 32 µg/mL
- MIC range (P. granulosum; marker none, phenotype none): 0.06 µg/mL (≈ 0.0748 µM)
- Lung AUC ([1]; mouse lung tissue): 45.9 ug/mL-h
- Lung Cmax ([1]; mouse lung tissue): 8700 ng/mL
- AUC ([1]; mouse plasma): 16200 ng·h/mL
- Cmax ([1]; mouse plasma): 3000 ng/mL
- Highest dermal penetration [2]: 5.7 % of applied dose

— patent US7595300B2, “7-quinolyl ketolide antibacterial agents” (priority 2005, dated 2009)
